Among the data in the NIST ThermoML archive (doi:10.1021/je100556t) are molar volume values, retold here.

The structures appear in SMILES notation. Numbers after ± are expanded uncertainties.

For this data set the following is noted: 298.15 K; 101.33 kPa; Liquid.
`CCOCCO` [2-ethoxyethan-1-ol]: the molar volume stood at 9.742e-05 ± 4e-08 m3/mol.

Consider `COCCO` [2-methoxyethan-1-ol], for which the molar volume came out at 7.926e-05 ± 3e-08 m3/mol. For `C1CCCCC1` [cyclohexane] the value was 0.0001088 ± 9e-08 m3/mol. For `CCO` [ethanol] the value was 5.866e-05 ± 5e-08 m3/mol; for `C1CCOC1` [tetrahydrofuran], 8.174e-05 ± 4e-08 m3/mol.
